The target in experiment [1] is T1, JAK1 (Homo sapiens, UniProt P23458). Nature of the experiment: JAK1 kinase ADP-Glo assay (Example 59). The format is biochemical. More on the design: purchased Invitrogen PV4774. Particulars: for IC50: JAK1 (Invitrogen) 4 nM, ATP 20 μM, IRS1 0.05 mg/mL, 25° C. 60 min, read-out: IC50 (nM), JAK1 Experiment; for Hillslope, JAK1 Experiment: slope of the nonlinear IC50 fit. For orientation: In ADP-Glo the light output rises with the ADP produced.
Target sequence in this assay (P23458 866-1154 limits assumed): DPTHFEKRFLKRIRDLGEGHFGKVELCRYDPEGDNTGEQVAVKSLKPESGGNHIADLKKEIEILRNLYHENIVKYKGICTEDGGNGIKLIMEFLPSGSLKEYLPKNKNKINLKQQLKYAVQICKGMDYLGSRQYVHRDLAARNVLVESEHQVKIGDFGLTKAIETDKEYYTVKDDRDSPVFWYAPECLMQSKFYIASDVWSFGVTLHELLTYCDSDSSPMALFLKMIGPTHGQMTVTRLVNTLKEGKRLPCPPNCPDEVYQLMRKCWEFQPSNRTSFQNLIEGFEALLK

In experiment [2] the target is T2, JAK3 (Homo sapiens, UniProt P52333). Nature of the experiment: JAK3 kinase ADP-Glo assay (Example 59). The format is biochemical. The arrangement: purchased Invitrogen PV3855. Particulars: for IC50: JAK3 (Invitrogen) 0.5 nM, ATP 10 μM, Poly (4:1 Glu, Tyr) 0.03 mg/mL, 25° C. 60 min, read-out: IC50 (nM), JAK3 Experiment; for Hillslope, JAK3 Experiment: slope of the nonlinear IC50 fit.
Target sequence in this assay (P52333 781-1124 limits assumed): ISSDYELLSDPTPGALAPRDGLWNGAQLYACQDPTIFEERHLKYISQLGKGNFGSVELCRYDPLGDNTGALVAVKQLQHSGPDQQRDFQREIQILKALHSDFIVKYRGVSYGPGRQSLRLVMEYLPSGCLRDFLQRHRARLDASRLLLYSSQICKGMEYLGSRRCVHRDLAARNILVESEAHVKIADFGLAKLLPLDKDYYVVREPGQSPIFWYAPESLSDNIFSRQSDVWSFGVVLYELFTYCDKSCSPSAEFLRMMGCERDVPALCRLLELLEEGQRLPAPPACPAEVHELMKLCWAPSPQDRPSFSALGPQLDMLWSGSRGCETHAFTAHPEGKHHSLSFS

Experiment [3] has as its target T3, TYK2 (Homo sapiens, UniProt P29597).
T3 construct: purchased Invitrogen PV4790
Description: TYK2 kinase ADP-Glo assay (Example 59). Type of experiment: biochemical. Particulars: for IC50: TYK2 (Invitrogen) 4 nM, ATP 10 μM, IRS1 0.03 mg/mL, 25° C. 60 min, read-out: IC50 (nM), TYK2 Experiment; for Hillslope, TYK2 Experiment: slope of the nonlinear IC50 fit.
T3 sequence (P29597 833-1187 limits assumed): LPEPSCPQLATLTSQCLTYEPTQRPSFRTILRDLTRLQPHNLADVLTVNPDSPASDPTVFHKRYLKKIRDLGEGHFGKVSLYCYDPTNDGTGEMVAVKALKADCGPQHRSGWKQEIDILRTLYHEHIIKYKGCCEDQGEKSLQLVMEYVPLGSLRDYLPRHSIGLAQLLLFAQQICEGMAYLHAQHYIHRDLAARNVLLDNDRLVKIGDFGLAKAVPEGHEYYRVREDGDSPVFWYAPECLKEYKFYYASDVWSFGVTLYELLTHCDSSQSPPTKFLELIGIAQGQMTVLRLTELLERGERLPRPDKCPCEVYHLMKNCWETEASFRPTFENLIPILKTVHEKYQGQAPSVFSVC

Experiment [4] deals with T4, JAK2 (Homo sapiens, UniProt O60674). Description: JAK2 kinase ADP-Glo assay (Example 59). Particulars: for Hillslope, JAK2 Experiment: Example 59, slope of the nonlinear IC50 fit.
Target sequence in this assay (O60674 808-1132 limits assumed): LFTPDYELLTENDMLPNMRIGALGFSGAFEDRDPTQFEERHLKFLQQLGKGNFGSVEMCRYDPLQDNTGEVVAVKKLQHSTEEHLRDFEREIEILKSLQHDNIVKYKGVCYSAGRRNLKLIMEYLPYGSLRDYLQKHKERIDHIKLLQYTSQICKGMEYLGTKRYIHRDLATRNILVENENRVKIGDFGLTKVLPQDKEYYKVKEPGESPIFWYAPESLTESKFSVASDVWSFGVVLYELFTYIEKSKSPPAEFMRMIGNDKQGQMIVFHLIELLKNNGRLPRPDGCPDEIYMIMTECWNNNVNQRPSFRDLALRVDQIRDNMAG
Experiment [5] deals with T1, JAK1. Nature of the experiment: JAK1 kinase ADP-Glo assay (Example 60).
Target sequence in this assay (P23458 850-1154 limits assumed): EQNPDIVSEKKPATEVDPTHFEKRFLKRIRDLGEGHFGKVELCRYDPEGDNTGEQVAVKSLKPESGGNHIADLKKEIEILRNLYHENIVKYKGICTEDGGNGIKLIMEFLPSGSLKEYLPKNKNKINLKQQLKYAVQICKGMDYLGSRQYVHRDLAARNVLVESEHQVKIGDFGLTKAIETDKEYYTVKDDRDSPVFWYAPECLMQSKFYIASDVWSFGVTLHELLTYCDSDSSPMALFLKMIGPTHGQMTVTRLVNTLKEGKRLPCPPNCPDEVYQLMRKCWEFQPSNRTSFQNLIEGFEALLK
The target in experiment [6] is T5, TYK2 (Homo sapiens, UniProt P29597).
T5 sequence (P29597 871-1187 limits assumed): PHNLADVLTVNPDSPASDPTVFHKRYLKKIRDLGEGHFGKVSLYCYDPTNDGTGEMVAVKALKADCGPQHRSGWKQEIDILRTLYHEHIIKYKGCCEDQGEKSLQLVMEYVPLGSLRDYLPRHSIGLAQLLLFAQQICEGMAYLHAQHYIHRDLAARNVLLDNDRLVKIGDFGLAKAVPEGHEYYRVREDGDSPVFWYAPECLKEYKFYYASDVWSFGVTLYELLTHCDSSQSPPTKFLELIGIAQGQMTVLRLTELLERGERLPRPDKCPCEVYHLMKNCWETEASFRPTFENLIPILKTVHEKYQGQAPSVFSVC
Nature of the experiment: TYK2 kinase ADP-Glo assay (Example 60).

In experiment [7] the target is T2, JAK3. Description: JAK3 kinase ADP-Glo assay (Example 60).
Target sequence in this assay (P52333 795-1124 limits assumed): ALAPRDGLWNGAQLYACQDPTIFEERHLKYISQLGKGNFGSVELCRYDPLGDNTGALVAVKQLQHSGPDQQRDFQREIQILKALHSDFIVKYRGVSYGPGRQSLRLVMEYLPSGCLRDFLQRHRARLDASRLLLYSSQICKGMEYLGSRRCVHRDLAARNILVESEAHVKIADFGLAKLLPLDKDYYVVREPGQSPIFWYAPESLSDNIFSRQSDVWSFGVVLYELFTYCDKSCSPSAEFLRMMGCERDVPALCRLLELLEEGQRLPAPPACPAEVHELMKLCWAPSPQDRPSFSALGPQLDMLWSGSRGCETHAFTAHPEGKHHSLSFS
The target of experiment [8] is T4, JAK2. Description: JAK2 kinase ADP-Glo assay (Example 60).
Target sequence in this assay (O60674 826-1132 limits assumed): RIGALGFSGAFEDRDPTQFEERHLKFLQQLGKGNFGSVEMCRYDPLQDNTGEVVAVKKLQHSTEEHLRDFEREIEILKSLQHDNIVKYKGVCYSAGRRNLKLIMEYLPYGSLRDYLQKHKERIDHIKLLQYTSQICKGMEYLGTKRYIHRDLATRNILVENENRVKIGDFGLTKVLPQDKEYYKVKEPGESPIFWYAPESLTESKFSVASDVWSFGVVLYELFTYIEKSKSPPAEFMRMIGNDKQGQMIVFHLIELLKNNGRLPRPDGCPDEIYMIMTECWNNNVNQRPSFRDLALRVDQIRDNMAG

The text below walks through data of patent US12180215B2, “Substituted pyrrolo[3,4-d]imidazoles as JAK inhibitors” (HENAN MEDINNO PHARMACEUTICAL TECHNOLOGY CO., LTD., priority 2019, dated 2024).

Structures are written as SMILES.

As a reminder, the IC50 is the concentration that gives 50% inhibition. Regarding `CCc1cc(O)c(F)cc1-c1ccc2c(-c3nc4c([nH]3)CN(C(=O)c3cnc(N5CCN(C)CC5)cn3)C4)n[nH]c2c1` [MDI-204, (2-(6-(2-ethyl-5-fluoro-4-hydroxyphenyl)-1H-indazol-3-yl)pyrrolo[3,4-d]imidazol-5(1H,4H,6H)-yl)(5-(4-methylpiperazin-1-yl)pyrazin-2-yl)ketone], the IC50 on JAK1 [1] amounted to 0.152 nM; on JAK3 [2] it was 0.238 nM; on TYK2 [3] it was 0.2 nM; against JAK2 [4] it was 0.176 nM.
With `O=C(Nc1nc2cccc(-c3ccc(CN4CCS(=O)(=O)CC4)cc3)n2n1)C1CC1` [Filgotinib, reference compound], the “Hillslope, JAK1 Experiment” value at JAK1 [1] amounted to 1.067. In addition, the “Hillslope, JAK3 Experiment” value at JAK3 [2] is reported as 1.318. On TYK2 [3], the “Hillslope, TYK2 Experiment” value is recorded as 1.037. Further, at JAK2 [4], the “Hillslope, JAK2 Experiment” value was 1.142.
As to `CCc1cc(O)c(F)cc1-c1ccc2c(-c3nc4c([nH]3)CN(C3CCC(O)CC3)C4)n[nH]c2c1` (stereo not drawn) [MDI-217, 5-ethyl-2-fluoro-4-(3-(5-(4-hydroxylcyclohexyl)-1,4,5,6-tetrahydropyrrolo[3,4-d]imidazol-2-yl)-1H-indazol-6-yl)phenol], the IC50 at JAK1 [1] turned out to be 0.122 nM; at JAK3 [2], 0.137 nM; on TYK2 [3], 0.391 nM.
Turning to `CCc1cc(O)ccc1-c1ccc2c(-c3nc4c([nH]3)CN(C(=O)c3cnc(N5CCN(C)CC5)cn3)C4)n[nH]c2c1` [MDI-205, (2-(6-(2-ethyl-4-hydroxyphenyl)-1H-indazol-3-yl)pyrrolo[3,4-d]imidazol-5(1H,4H,6H)-yl)(5-(4-methylpiperazin-1-yl)pyrazin-2-yl)ketone], the half-inhibitory concentration (IC50) came to 0.121 nM at JAK1 [1], 0.178 nM at JAK3 [2], 0.194 nM on TYK2 [3] and 0.158 nM against JAK2 [4].
Taken in the same sequence, the figures for `CCc1cc(O)c(F)cc1-c1ccc2c(-c3nc4c([nH]3)CN(C(=O)C3CC3)C4)n[nH]c2c1` [MDI-209, cyclopropyl (2-(6-(2-ethyl-5-fluoro-4-hydroxyphenyl)-1H-indazol-3-yl)pyrrolo[3,4-d]imidazol-5(1H, 4H,6H)-yl)ketone] were 0.128 nM, 0.158 nM, 0.281 nM and 0.165 nM.
Taken in the same sequence, the figures for `CCc1cc(O)c(F)cc1-c1ccc2c(-c3nc4c([nH]3)CN(C(=O)C3CCN(C)CC3)C4)n[nH]c2c1` [MDI-203, (2-(6-(2-ethyl-5-fluoro-4-hydroxyphenyl)-1H-indazol-3-yl)pyrrolo[3,4-d]imidazol-5(1H, 4H,6H)-yl)(1-methylpiperidin-4-yl)ketone] were 0.16 nM, 0.212 nM, 0.328 nM and 0.208 nM.
On to `CCc1cc(O)c(F)cc1-c1ccc2c(-c3nc4c([nH]3)CN(Cc3cnccn3)C4)n[nH]c2c1` [MDI-207, 5-ethyl-2-fluoro-4-(3-(5-(pyrazin-2ylmethyl)-1,4,5,6-tetrahydropyrrolo[3,4-d]imidazol-2-yl)-1H-indazol-6-yl)phenol], for which the IC50 on JAK1 [1] is 0.12 nM; at JAK3 [2], 0.132 nM; on TYK2 [3] it was 0.474 nM; against JAK2 [4], 0.16 nM.
For the compound `CCc1cc(O)c(F)cc1-c1ccc2c(-c3nc4c([nH]3)CN(C(=O)C3CC(O)C3)C4)n[nH]c2c1` (stereo not drawn) [MDI-213, (2-(6-(2-ethyl-5-fluoro-4-hydroxyphenyl)-1H-indazol-3-yl)pyrrolo[3,4-d]imidazol-5(1H,4H,6H)-yl)(3-hydroxylcyclobutyl)ketone], the IC50 on JAK1 [1] was determined as 0.146 nM; on JAK3 [2] it was 0.116 nM; on TYK2 [3], 0.146 nM; at JAK2 [4], 0.166 nM.
Consider `CCc1cc(O)c(F)cc1-c1ccc2c(-c3nc4c([nH]3)CN(C(=O)c3cnc(N5CCCCC5)cn3)C4)n[nH]c2c1` [MDI-2, (2-(6-(2-ethyl-5-fluoro-4-hydroxyphenyl)-1H-indazol-3-yl)-4,6-dihydropyrrolo[3,4-d]imidazol-5(1H)-yl)(5-(piperidin-1-yl)pyrazin-2-yl)ketone], for which the IC50 was determined as 0.806 nM at JAK1 [1], 0.765 nM at JAK3 [2], 1.63 nM at TYK2 [3] and 0.772 nM against JAK2 [4].
Taken in the same sequence, the figures for `CCc1cc(O)c(F)cc1-c1ccc2c(-c3nc4c([nH]3)CN(C(=O)c3cnn(C)c3)C4)n[nH]c2c1` [MDI-202, (2-(6-(2-ethyl-5-fluoro-4-hydroxyphenyl)-1H-indazol-3-yl)-4,6-dihydropyrrolo[3,4-d]imidazol-5(1H)-yl)(1-methyl-1H-pyrazol-4-yl)ketone] were 0.125 nM, 0.16 nM, 0.318 nM and 0.279 nM.
Consider `CCc1cc(O)c(F)cc1-c1ccc2c(-c3nc4c([nH]3)CN(C(=O)c3cnc(N5CCOCC5)cn3)C4)n[nH]c2c1` [MDI-201, (2-(6-(2-ethyl-5-fluoro-4-hydroxyphenyl)-1H-indazol-3-yl)-4,6-dihydropyrrolo[3,4-d]imidazol-5(1H)-yl)(5-morpholinepyrazin-2-yl)ketone], for which, on JAK1 [1], the 50% inhibitory concentration (IC50) is 0.138 nM and the “Hillslope, JAK1 Experiment” value was 3.487. In addition, at JAK3 [2], the IC50 was 0.187 nM and the “Hillslope, JAK3 Experiment” value came out at 1.989. For the same compound, on TYK2 [3], the IC50 was found to be 0.281 nM and the “Hillslope, TYK2 Experiment” value was 1.411. For the same compound, on JAK2 [4], the IC50 stood at 0.217 nM and the “Hillslope, JAK2 Experiment” value is given as 1.633.
With `CCc1cc(O)c(F)cc1-c1ccc2c(-c3nc4c([nH]3)CN(S(=O)(=O)c3ccccc3)C4)n[nH]c2c1` [MDI-206, 5-ethyl-2-fluoro-4-(3-(5-(benzenesulfonyl)-1,4,5,6-tetrahydropyrrolo[3,4-d]imidazol-2-yl)-1H-indazol-6-yl)phenol], on JAK1 [1], the IC50 is 0.943 nM and the “Hillslope, JAK1 Experiment” value came out at 1.091. At JAK3 [2], the IC50 was determined as 0.628 nM and the “Hillslope, JAK3 Experiment” value is on record as 1.216. For the same compound, on TYK2 [3], the IC50 was found to be 7.23 nM and the “Hillslope, TYK2 Experiment” value came to 0.744. For the same compound, on JAK2 [4], 0.556 nM corresponded to half-maximal inhibition (IC50) and the “Hillslope, JAK2 Experiment” value amounted to 1.457.
For `CCc1cc(O)c(F)cc1-c1ccc2c(-c3nc4c([nH]3)CN(C(=O)NCCC#N)C4)n[nH]c2c1` [MDI-258, N-(2-cyanoethyl)-2-(6-(2-ethyl-5-fluoro-4-hydroxyphenyl)-1H-indazol-3-yl)-4,6-dihydropyrrolo[3,4-d]imidazole-5(1H)-carboxamide], the IC50 against JAK1 [5] amounted to 0.939 nM; on TYK2 [6], 6.27 nM; at JAK3 [7], 2.36 nM; against JAK2 [8], 3.31 nM.
Taken in the same sequence, the figures for `CCc1cc(O)c(F)cc1-c1ccc2c(-c3nc4c([nH]3)CN(C(=O)N3CC(C#N)C3)C4)n[nH]c2c1` [MDI-249, 1-(2-(6-(2-ethyl-5-fluoro-4-hydroxyphenyl)-1H-indazol-3-yl)-1,4,5,6-tetrahydropyrrolo[3,4-d]imidazol-5-carbonyl)Azetidin-3-nitrile] were 0.307 nM, 1.93 nM, 0.398 nM and 0.697 nM.
As to `CCc1cc(O)c(F)cc1-c1ccc2c(-c3nc4c([nH]3)CN(C(=O)c3ccnnc3)C4)n[nH]c2c1` [MDI-214, (2-(6-(2-ethyl-5-fluoro-4-hydroxyphenyl)-1H-indazol-3-yl)-pyrrolo[3,4-d]imidazol-5-(1H,4H,6H)-yl)(pyridazin-4-yl)ketone], the IC50 on JAK1 [5] came to 0.303 nM; on TYK2 [6], 2.8 nM; on JAK3 [7], 0.352 nM; against JAK2 [8] it was 0.273 nM.
Taken in the same sequence, the figures for `CCc1cc(O)c(F)cc1-c1ccc2c(-c3nc4c([nH]3)CN(Cc3cnn(C)c3)C4)n[nH]c2c1` [MDI-221, 5-ethyl-2-fluoro-4-(3-(5-((1-methyl-1H-pyrazol-4-yl)methyl)-1,4,5,6-tetrahydropyrrolo[3,4-d]imidazol-2-yl)-1H-indazol-6-yl)phenol] were 0.128 nM, 7.6 nM, 0.379 nM and 0.363 nM.
Taken in the same sequence, the figures for `CCc1cc(O)c(F)cc1-c1ccc2c(-c3nc4c([nH]3)CN(C(=O)N3CCN(CC)CC3)C4)n[nH]c2c1` [MDI-236, (2-(6-(2-ethyl-5-fluoro-4-hydroxyphenyl)-1H-indazol-3-yl)-4,6-dihydropyrrolo[3,4-d]imidazol-5-(1H)-yl)(4-ethylpiperazin-1-yl)ketone] were 0.0403 nM, 0.0954 nM, 0.141 nM and 0.329 nM.
